Structures can show the parent of a compound that is named as a salt.
What follows are compounds tested against catalytic domain of human PARP14 (Homo sapiens (Human), UniProt Q460N5) (assay: Enzymatic assay for inhibition of PARP14 (DELFIA, auto-modification with biotin-NAD)). Conditions: auto-modification of PARP14 by biotin-NAD, 50 nM PARP14, 3 μM biotin-NAD.
Sequence of catalytic domain of human PARP14 (Q460N5 1611-1801): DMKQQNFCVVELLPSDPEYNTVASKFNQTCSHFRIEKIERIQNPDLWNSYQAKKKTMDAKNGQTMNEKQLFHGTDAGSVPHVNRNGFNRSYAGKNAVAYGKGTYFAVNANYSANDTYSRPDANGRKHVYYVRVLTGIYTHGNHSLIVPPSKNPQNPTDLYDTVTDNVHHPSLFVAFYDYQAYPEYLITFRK
Format: biochemical
Procedure, shortened: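 His-TEV-tagged PARP14 catalytic domain (50 nM) preincubated with compound 30 min at 25 °C, then auto-modified with 3 μM biotin-NAD for 3 h at 25 °C in HEPES pH 8 buffer with DTT. IC50 from 4-parameter fit, rucaparib and DMSO as controls.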
With `O=c1[nH]c(CSC2CCOCC2)nc2cc(Nc3cnccn3)ccc12` [Example 85, 7-(Pyrazin-2-ylamino)-2-(((tetrahydro-2H-pyran-4-yl)thio)methyl)quinazolin-4(3H)-one] the IC50 was 1000 to 10000 nM. In the case of `O=c1[nH]c(CSC2CCOCC2)nc2cc(Nc3ccncc3)ccc12` [Example 86, 7-(Pyridin-4-ylamino)-2-(((tetrahydro-2H-pyran-4-yl)thio)methyl)quinazolin-4(3H)-one], the IC50 is reported as 1000 to 10000 nM. `O=c1[nH]c(CSC2CCOCC2)nc2cc(Nc3cncnc3)ccc12` [Example 87, 7-(Pyrimidin-5-ylamino)-2-(((tetrahydro-2H-pyran-4-yl)thio)methyl)quinazolin-4(3H)-one] gave an IC50 of 1000 to 10000 nM. Work on `Cn1ccnc1Nc1ccc2c(=O)[nH]c(CSC3CCOCC3)nc2c1` [Example 88, 7-((1-Methyl-1H-imidazol-2-yl)amino)-2-(((tetrahydro-2H-pyran-4-yl)thio)methyl)quinazolin-4(3H)-one] yielded an IC50 greater than 10000 nM. `O=c1[nH]c(CSC2CCOCC2)nc2cc(Nc3nccs3)ccc12` [Example 89, 2-(((Tetrahydro-2H-pyran-4-yl)thio)methyl)-7-(thiazol-2-ylamino)quinazolin-4(3H)-one] showed an IC50 of 1000 to 10000 nM. Compound `Cc1ncccc1Nc1ccc2c(=O)[nH]c(CSC3CCOCC3)nc2c1` [Example 90, 7-((2-Methylpyridin-3-yl)amino)-2-(((tetrahydro-2H-pyran-4-yl)thio)methyl)quinazolin-4(3H)-one] has an IC50 of 1000 to 10000 nM. `Cc1ccncc1Nc1ccc2c(=O)[nH]c(CSC3CCOCC3)nc2c1` [Example 91, 7-((4-Methylpyridin-3-yl)amino)-2-(((tetrahydro-2H-pyran-4-yl)thio)methyl)quinazolin-4(3H)-one] was tested, and the IC50 was 1000 to 10000 nM. `Cc1cncc(Nc2ccc3c(=O)[nH]c(CSC4CCOCC4)nc3c2)c1` [Example 92, 7-((5-Methylpyridin-3-yl)amino)-2-(((tetrahydro-2H-pyran-4-yl)thio)methyl)quinazolin-4(3H)-one] was tested, and the IC50 was 1000 to 10000 nM. Compound `Nc1cnn(-c2ccc3c(=O)[nH]c(CSC4CCOCC4)nc3c2)c1` [Example 93, 7-(4-Amino-1H-pyrazol-1-yl)-2-(((tetrahydro-2H-pyran-4-yl)thio)methyl) quinazolin-4(3H)-one Trifluoroacetate] has an IC50 greater than 10000 nM. In the case of `O=c1[nH]c(CSC2CCOCC2)nc2cc(Nc3ccon3)ccc12` [Example 94, 7-(Isoxazol-3-ylamino)-2-(((tetrahydro-2H-pyran-4-yl)thio)methyl)quinazolin-4(3H)-one], the IC50 is reported as less than 1000 nM. With `Cc1c(Nc2ccccc2)ccc2c(=O)[nH]c(CSC3CCOCC3)nc12` [Example 95, 8-Methyl-7-(phenylamino)-2-(((tetrahydro-2H-pyran-4-yl)thio)methyl) quinazolin-4(3H)-one] the IC50 was 1000 to 10000 nM. In the case of `O=c1[nH]c(CSC2CCOCC2)nc2cc(OCc3ccccc3)ccc12` [Example 96, 7-(Benzyloxy)-2-(((tetrahydro-2H-pyran-4-yl)thio)methyl)quinazolin-4(3H)-one], the IC50 is reported as 1000 to 10000 nM. Compound `O=c1[nH]c(CSC2CCC(O)CC2)nc2cc(Nc3ccccc3)ccc12` (stereo not shown) [Example 97, 2-(((4-Hydroxycyclohexyl)thio)methyl)-7-(phenylamino)quinazolin-4(3H)-one] has an IC50 of 1000 to 10000 nM. For `O=c1[nH]c(CS[C@H]2CC[C@H](O)CC2)nc2cc(Nc3ccccc3)ccc12` [Example 98, 2-(((trans-4-Hydroxycyclohexyl)thio)methyl)-7-(phenylamino)quinazolin-4(3H)-one], the IC50 was less than 1000 nM. `O=c1[nH]c(CS[C@H]2CC[C@@H](O)CC2)nc2cc(Nc3ccccc3)ccc12` [Example 99, 2-(((cis-4-Hydroxycyclohexyl)thio)methyl)-7-(phenylamino)quinazolin-4(3H)-one] was tested, and the IC50 was 1000 to 10000 nM. With `O=c1[nH]c(CS[C@H]2CC[C@@H](O)CC2)nc2cc(Nc3cccnc3)ccc12` [Example 100, 2-(((cis-4-Hydroxycyclohexyl)thio)methyl)-7-(pyridin-3-ylamino)quinazolin-4(3H)-one] the IC50 was less than 1000 nM. Compound `O=c1[nH]c(CS[C@H]2CC[C@H](O)CC2)nc2cc(Nc3cccnc3)ccc12` [Example 101, 2-(((trans-4-Hydroxycyclohexyl)thio)methyl)-7-(pyridin-3-ylamino)quinazolin-4(3H)-one] has an IC50 of less than 1000 nM. Compound `O=c1[nH]c(CS[C@H]2CC[C@H](O)CC2)nc2cc(NC3CCCC3)ccc12` [Example 102, 7-(Cyclopentylamino)-2-(((trans-4-hydroxycyclohexyl)thio)methyl) quinazolin-4(3H)-one] has an IC50 of less than 1000 nM. Work on `O=c1[nH]c(CS[C@H]2CC[C@@H](O)CC2)nc2cc(NC3CCCC3)ccc12` [Example 103, 7-(Cyclopentylamino)-2-(((cis-4-hydroxycyclohexyl)thio)methyl) quinazolin-4(3H)-one] yielded an IC50 of less than 1000 nM. In the case of `O=c1[nH]c(CS[C@H]2CC[C@H](CO)CC2)nc2cc(Nc3ccccc3)ccc12` [Example 104, 2-(((trans-4-(Hydroxymethyl)cyclohexyl)thio)methyl)-7-(phenylamino) quinazolin-4(3H)-one], the IC50 is reported as 1000 to 10000 nM. `O=c1[nH]c(CS[C@H]2CC[C@@H](CO)CC2)nc2cc(Nc3ccccc3)ccc12` [Example 105, 2-(((cis-4-(Hydroxymethyl)cyclohexyl)thio)methyl)-7-(phenylamino) quinazolin-4(3H)-one] gave an IC50 of less than 1000 nM. With `O=c1[nH]c(CS[C@H]2CC[C@@H](CO)CC2)nc2cc(Nc3cccnc3)ccc12` [Example 106, 2-(((cis-4-(Hydroxymethyl)cyclohexyl)thio)methyl)-7-(pyridin-3-ylamino) quinazolin-4(3H)-one] the IC50 was 1000 to 10000 nM. For `O=c1[nH]c(CS[C@H]2CC[C@H](CO)CC2)nc2cc(Nc3cccnc3)ccc12` [Example 107, 2-(((trans-4-(Hydroxymethyl)cyclohexyl)thio)methyl)-7-(pyridin-3-ylamino) quinazolin-4(3H)-one], the IC50 was less than 1000 nM. `O=c1[nH]c(CSC2CCOCC2)nc2cc(NC3CCCCC3)ccc12` [Example 108, 7-(Cyclohexylamino)-2-(((tetrahydro-2H-pyran-4-yl)thio)methyl)quinazolin-4(3H)-one] gave an IC50 of less than 1000 nM. Work on `CN(C)c1ccc2c(=O)[nH]c(CSC3CCOCC3)nc2c1` [Example 109, 7-(Dimethylamino)-2-(((tetrahydro-2H-pyran-4-yl)thio)methyl)quinazolin-4(3H)-one] yielded an IC50 of 1000 to 10000 nM. `CNc1ccc2c(=O)[nH]c(CSC3CCOCC3)nc2c1` [Example 110, 7-(Methylamino)-2-(((tetrahydro-2H-pyran-4-yl)thio)methyl)quinazolin-4(3H)-one] was tested, and the IC50 was 1000 to 10000 nM. `O=c1[nH]c(CSC2CCOCC2)nc2cc(N3CCOCC3)ccc12` [Example 111, 7-Morpholino-2-(((tetrahydro-2H-pyran-4-yl)thio)methyl)quinazolin-4(3H)-one] was tested, and the IC50 was 1000 to 10000 nM. `CN1CCN(c2ccc3c(=O)[nH]c(CSC4CCOCC4)nc3c2)CC1` [Example 112, 7-(4-Methylpiperazin-1-yl)-2-(((tetrahydro-2H-pyran-4-yl)thio)methyl)quinazolin-4(3H)-one] gave an IC50 of 1000 to 10000 nM. In the case of `CN1CCC(Nc2ccc3c(=O)[nH]c(CSC4CCOCC4)nc3c2)CC1` [Example 113, 7-((1-Methylpiperidin-4-yl)amino)-2-(((tetrahydro-2H-pyran-4-yl)thio)methyl)quinazolin-4(3H)-one], the IC50 is reported as greater than 10000 nM. `O=c1[nH]c(CSC2CCOCC2)nc2cc(NC3CCOCC3)ccc12` [Example 114, 7-((Tetrahydro-2H-pyran-4-yl)amino)-2-(((tetrahydro-2H-pyran-4-yl)thio)methyl)quinazolin-4(3H)-one] gave an IC50 of 1000 to 10000 nM. Work on `O=c1[nH]c(CSC2CCOCC2)nc2cc(NC3CCCC3)ccc12` [Example 115, 7-(Cyclopentylamino)-2-(((tetrahydro-2H-pyran-4-yl)thio)methyl)quinazolin-4(3H)-one] yielded an IC50 of less than 1000 nM. `CC(C)Nc1ccc2c(=O)[nH]c(CSC3CCOCC3)nc2c1` [Example 116, 7-(Isopropylamino)-2-(((tetrahydro-2H-pyran-4-yl)thio)methyl)quinazolin-4(3H)-one] gave an IC50 of less than 1000 nM. `O=c1[nH]c(CSC2CCOCC2)nc2cc(NCc3ccncc3)ccc12` [Example 117, 7-((Pyridin-4-ylmethyl)amino)-2-(((tetrahydro-2H-pyran-4-yl)thio)methyl)quinazolin-4(3H)-one] gave an IC50 of 1000 to 10000 nM. With `O=c1[nH]c(CSC2CCOCC2)nc2cc(NCc3ccccn3)ccc12` [Example 118, 7-((Pyridin-2-ylmethyl)amino)-2-(((tetrahydro-2H-pyran-4-yl)thio)methyl)quinazolin-4(3H)-one] the IC50 was 1000 to 10000 nM. `O=c1[nH]c(CSC2CCOCC2)nc2cc(NCc3ccccc3)ccc12` [Example 119, 7-(Benzylamino)-2-(((tetrahydro-2H-pyran-4-yl)thio)methyl)quinazolin-4(3H)-one] showed an IC50 of less than 1000 nM. `CC(Nc1ccc2c(=O)[nH]c(CSC3CCOCC3)nc2c1)c1ccccc1` (stereo not shown) [Example 120, 7-((1-Phenylethyl)amino)-2-(((tetrahydro-2H-pyran-4-yl)thio)methyl)quinazolin-4(3H)-one] was tested, and the IC50 was greater than 10000 nM. Compound `O=c1[nH]c(CSC2CCOCC2)nc2cc(NC3CCOC3)ccc12` (stereo not shown) [Example 121, 2-(((Tetrahydro-2H-pyran-4-yl)thio)methyl)-7-((tetrahydrofuran-3-yl)amino)quinazolin-4(3H)-one] has an IC50 of less than 1000 nM. `O=c1[nH]c(CSC2CCOCC2)nc2cc(NC3CCC3)ccc12` [Example 122, 7-(Cyclobutylamino)-2-(((tetrahydro-2H-pyran-4-yl)thio)methyl)quinazolin-4(3H)-one] was tested, and the IC50 was less than 1000 nM. Work on `O=c1[nH]c(CSC2CCOCC2)nc2cc(NCc3cccnc3)ccc12` [Example 123, 7-((Pyridin-3-ylmethyl)amino)-2-(((tetrahydro-2H-pyran-4-yl)thio)methyl)quinazolin-4(3H)-one] yielded an IC50 of less than 1000 nM. For `O=c1[nH]c(CSC2CCOCC2)nc2cc(NC3CC3)ccc12` [Example 124, 7-(Cyclopropylamino)-2-(((tetrahydro-2H-pyran-4-yl)thio)methyl)quinazolin-4(3H)-one], the IC50 was less than 1000 nM.

Source: patent US10562891B2, “Quinazolinones as PARP14 inhibitors” (Ribon Therapeutics Inc., priority 2017, dated 2020)
